Molecular target: T1, AhR (Mus musculus, UniProt P30561)
T1 sequence (P30561 1-848): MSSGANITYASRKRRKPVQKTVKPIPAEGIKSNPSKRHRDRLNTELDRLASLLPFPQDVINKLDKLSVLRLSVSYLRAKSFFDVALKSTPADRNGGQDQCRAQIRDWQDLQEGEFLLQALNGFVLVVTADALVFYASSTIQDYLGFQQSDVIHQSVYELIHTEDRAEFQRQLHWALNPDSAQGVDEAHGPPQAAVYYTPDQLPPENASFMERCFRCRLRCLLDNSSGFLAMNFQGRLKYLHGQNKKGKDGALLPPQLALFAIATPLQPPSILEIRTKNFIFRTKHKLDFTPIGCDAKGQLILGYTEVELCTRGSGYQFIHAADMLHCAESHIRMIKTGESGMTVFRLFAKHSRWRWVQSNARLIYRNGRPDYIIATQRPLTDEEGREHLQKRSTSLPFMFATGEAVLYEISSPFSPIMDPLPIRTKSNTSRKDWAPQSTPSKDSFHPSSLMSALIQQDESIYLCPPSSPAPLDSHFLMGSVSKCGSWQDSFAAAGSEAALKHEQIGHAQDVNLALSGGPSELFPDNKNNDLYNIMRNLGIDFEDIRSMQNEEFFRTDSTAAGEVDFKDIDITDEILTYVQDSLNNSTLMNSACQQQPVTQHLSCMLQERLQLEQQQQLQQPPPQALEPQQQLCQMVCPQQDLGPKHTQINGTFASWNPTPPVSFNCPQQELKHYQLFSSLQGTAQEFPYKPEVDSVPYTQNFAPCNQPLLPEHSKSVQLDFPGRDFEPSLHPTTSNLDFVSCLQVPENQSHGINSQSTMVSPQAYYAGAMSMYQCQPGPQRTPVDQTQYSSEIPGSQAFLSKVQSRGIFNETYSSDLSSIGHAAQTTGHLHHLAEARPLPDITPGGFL
Assay: In vitro assay 2: XRE-luciferase reporter assay, antagonism in mouse cell line (Hepa1c1c7)
Type: cell-based
Conditions: Hepa1c1c7 XRE-Luc, cells treated with kynurenine (#), 6 hours
From the text: In Vitro XRE-Luciferase Reporter Assay (In Vitro Assay 1, 2, 3)
AhR activation leads the induction of target gene expression such as CYP1A1 and CYP1B1 by AhR binding to AhR-responsive DNA elements also known as xenobiotics responsive elements (XRE). The assay for measuring AhR activity herein is the luciferase assay using cell lines transfected with luciferase reporter plasmid containing XREs at the upstream of the reporter gene. Cells transfected with XRE-luciferase reporter (XRE-Luc) plasmid drive luciferase activity reflecting activation and inhibition of AhR in the cells. In addition to transfection with XRE-reporter vector, cells were co-transfected with Nano-luciferase reporter gene construct (Nano-Luc) containing constitutively active promoter as internal control. Kynurenine (an endogenous AhR agonist) was used to stimulate cells to test antagonistic properties of the compounds. The half-maximal inhibitory concentration (IC50) or half-maximal effective concentration (EC50) value was calculated using nonlinear regression (four parameters) with Prism8.0 software (GraphPad).
In Vitro Assay 2: Antagonism in Mouse Cell Line
Hepa1c1c7 (murine liver cancer cell line) cells co-transfected with XRE-Luc and Nano-Luc plasmids were plated in complete medium and incubated overnight at 37° C. in a CO2 incubator. Following incubation, cells were treated with AhR activating ligands such as kynurenic acid, kynurenine(#) with or without test compounds for 6 hours. Firefly luciferase and Nano-luciferase activity was measured using Nano-glo Luciferase kit (Promega) and relative luciferase activity (Firefly/Nano-Luc) was used to calculate IC50 values. The relative luciferase activity was further normalized with agonists alone group as the maximum control and the vehicle group as the minimum control. (IC50 Values are grouped as A, B, C and D, whereby A: IC50<0.01 μM; B: 0.01<IC50<0.1 μM; C: 0.1<IC50<1.0 μM; D: IC50>1.0 μM)

Structure (SMILES): CC(CO)n1cnc2c(-c3cccnc3)nc(-c3ccc(Cl)cc3)cc2c1=O (stereo not shown) [Example 46, 6-(4-chlorophenyl)-3-(1-hydroxypropan-2-yl)-8-(pyridin-3-yl)pyrido[3,4-d]pyrimidin-4(3H)-one]
- IC50: < 10 nM
